Literature values as cited in patent publication US20220401389A1, “TRANSMUCOSAL THERAPEUTIC SYSTEM CONTAINING AGOMELATINE” (LTS LOHMANN Therapie-Systeme AG, priority 2019, published 2022).

[1] = patients with moderate hepatic impairment compared to healthy subjects

oral absorption (oral): > 80%
overall bioavailability (oral): less than 5%
increase of AUC [1]: up to 140 fold
increase of cmax [1]: up to 140 fold
SMILES: COc1ccc2cccc(CCNC(C)=O)c2c1 [agomelatine, N-(2-(7-Methoxy-1-naphthyl)ethyl)acetamide]
